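Cells were grown in 96-well plates and exposed to each compound for 48 hours at five concentrations; endpoints were interpolated linearly between bracketing concentrations, or set to the highest concentration if not reached. Here, GI50 denotes the concentration required for 50% inhibition of growth. Definition used: TGI = concentration required for complete inhibition of growth.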
Tests used:
Assay in all cases: growth of human tumour cells (NCI), 48 h
OVCAR-8 ovarian = test system: OVCAR-8 ovarian
MOLT-4 leukemia = test system: MOLT-4 leukemia
SF-268 CNS = test system: SF-268 CNS
A549 NSCLC = test system: A549 NSCLC
TK-10 renal = test system: TK-10 renal
IGROV1 ovarian = test system: IGROV1 ovarian
CCRF-CEM leukemia = test system: CCRF-CEM leukemia
OVCAR-5 ovarian = test system: OVCAR-5 ovarian
SF-295 CNS = test system: SF-295 CNS
MCF7 breast = test system: MCF7 breast

Row | Compound | GI50 (OVCAR-8 ovarian) [µM] | TGI (OVCAR-8 ovarian) [µM] | GI50 (MOLT-4 leukemia) [µM] | TGI (MOLT-4 leukemia) [µM] | GI50 (SF-268 CNS) [µM] | TGI (SF-268 CNS) [µM] | GI50 (A549 NSCLC) [µM] | TGI (A549 NSCLC) [µM] | GI50 (TK-10 renal) [µM] | TGI (TK-10 renal) [µM] | GI50 (IGROV1 ovarian) [µM] | TGI (IGROV1 ovarian) [µM] | GI50 (CCRF-CEM leukemia) [µM] | TGI (CCRF-CEM leukemia) [µM] | GI50 (OVCAR-5 ovarian) [µM] | TGI (OVCAR-5 ovarian) [µM] | GI50 (SF-295 CNS) [µM] | TGI (SF-295 CNS) [µM] | GI50 (MCF7 breast) [µM] | TGI (MCF7 breast) [µM]
1 | O=C(CN(C1CCCCC1)C1CCCCC1)Nc1ccc(S(=O)(=O)c2ccc(NC(=O)CN(C3CCCCC3)C3CCCCC3)cc2)cc1 | 0.701 | 3.71 | 0.293 | 2.7 | 0.337 | 1.6 | 1.33 | 3.26 | 2.24 | 6.03 | 0.421 | 1.6 | 0.222 | 1.28 | 1.13 | 2.52 | 1.5 | 2.96 | 0.299 | 1.62
2 | NC(=O)C(=CNc1nc(-c2ccc(Cl)c(Cl)c2)cs1)C(N)=O | 80.7 | > 100 | 48.7 | > 100 | 71.7 | > 100 | 85.7 | > 100 | > 100 | > 100 | 32.6 | > 100 | 20.4 | > 100 | > 100 | > 100 | 37.1 | > 100 | 80 | > 100
3 | COc1ccccc1/C=C/c1cnccn1 |  | > 10 |  | > 10 |  | > 10 |  | > 10 |  | > 10 |  | > 10 |  | > 10 |  | > 10 |  | > 10 |  | > 10
4 | O=C(O)c1cc(O)c2c(c1)C(C1c3cc(C(=O)O)cc(O)c3C(=O)c3c(OC4OC(CO)C(O)C(O)C4O)cccc31)c1cccc(OC3OC(CO)C(O)C(O)C3O)c1C2=O (stereo not given) | > 100 | > 100 | > 100 | > 100 | > 100 | > 100 | > 100 | > 100 | > 100 | > 100 | > 100 | > 100 | > 100 | > 100 | > 100 | > 100 | > 100 | > 100 | > 100 | > 100
5 | CC(C)c1ccccc1S(=O)c1ccccc1C(C)(C)O (stereo not given) |  | > 100 |  | > 100 |  | > 100 |  | > 100 |  | > 100 |  | > 100 |  | > 100 |  | > 100 |  | 48.1 |  | > 100
6 | COc1cc(NC(C)CCCN)c2nccc(C)c2c1OC (stereo not given) | 14.5 | 42.3 | 15.3 | 42.1 | 17.9 | 48.3 | 22.8 | 58.5 | 19.8 | 45.8 | 4.01 | 22.7 | 15.4 | 48 | 16.1 | 42.1 | 17 | 32.5 | 0.372 | 1.71
7 | CCN(CC)CCOc1ccc(/C(=C(\C)c2ccc(F)c(OC)c2)c2ccc(Cl)cc2)cc1 | 2.58 | 5.37 | 2.49 | 6.86 | 2.69 | 5.82 | 2.61 | 5.63 | 2.56 | 5.31 | 2.45 | 5.4 | 2.96 | 8.55 | 2.4 | 4.83 | 2.61 | 4.98 | 2.17 | 4.74
8 | CCOC(=O)N1CCN(C(=O)c2ccc(C(F)(F)F)nc2Nc2cc(Cl)ccc2C)CC1 | 30.2 | > 100 | 6.63 | 64.8 | 74.8 | > 100 | 14.8 | > 100 | 17.4 | 88.9 | 1.38 | 59.7 | 18.9 | > 100 | 39.4 | > 100 | 14.6 | 65.3 | 14.7 | 43
9 | COc1cc2c(cc1OC)C13CCN4CC5=CCOC6CC(=O)N2C1C6C5CC43O (stereo not given) |  | > 100 |  | > 100 |  | > 100 |  | > 100 |  | > 100 |  | > 100 |  | > 100 |  | > 100 |  | > 100 |  | > 100
10 | Cc1cc(NC(=O)c2ccc(C)c(Nc3nccc(-c4cccnc4)n3)c2)cc(-n2cnc(C)c2)c1 | 4.27 | 13.7 | 15.6 | > 50 | 5.46 | 13.4 | 0.492 | 8.7 | 0.0882 | 2.2 | 3.93 | 13.5 | 0.134 | > 50 | 3.54 | 10.5 | 3.07 | 12.2 | 1.86 | 9.19
